Measured values published in patent US20210186947A1, “TOMM6-INTERACTING EXTRACTS AND COMPOUNDS FOR USE IN THE TREATMENT AND PROPHYLAXIS OF NERVOUS SYSTEM DISEASES, ATHEROSCLEROSIS, HEPATITIS B INFECTION AND HUMAN PAPILLOMA VIRUS (HPV) INFECTION” (ETH ZURICH, priority 2018, published 2021).

Assays:
[1] = mouse, in vivo, po, 100 mg/kg/day
[2] = test system: angiotensin II AT2 receptor (AT2R, AGTR2); test: AT2R protein aggregation assay in HEK cells, immunoblot; assay type: cell-based, human; conditions: 10 microM for 72 h
Method: Proteins were also extracted from yeast cells and HEK cells expressing the indicated protein (i.e. HBsAg or AGTR2) as described above. Neuronal cell loss and hyperphosphorylated Tau in hippocampi of 15 months-old Tg2576 mice subjected to the CUMS protocol for 3 months was determined with crude homogenates of dissected hippocampi by direct binding assay with neuron-specific [^125I]-labeled anti-NeuN antibody (MAB377, clone A60, EMD Millipore, Merck KGaA, Darmstadt, Germany) and [^125I]-labeled AT8 antibody similarly as described (AbdAlla et al., J. Biol. Chem. 284, 6554-6565 (2009)).
In the second non-Abeta-based protein aggregation assay, different plant extracts were tested in a mammalian cell system, which analyzed the protein aggregation of the angiotensin II AT2 receptor (AT2R, AGTR2) protein in human embryonic kidney (HEK) cells. The system has physiological relevance because this cellular system is capable to reproduce AT2R protein aggregation, which also occurs in brains of AD patients and AD animal models (AbdAlla et al., J. Biol. Chem. 284, 6554-6565 (2009); AbdAlla et al., J. Biol. Chem. 284, 6566-6574 (2009)). The AT2 receptor in human embryonic kidney (HEK) cells forms stable dimers/oligomers under pro-oxidant conditions, which are resistant to urea-containing reducing SDS-PAGE (FIG. 2A, and AbdAlla et al., J. Biol. Chem. 284, 6566-6574 (2009)). […]

[3] = test system: hippocampal neuronal cell bodies (NeuN); test: Hippocampal neuronal loss in Tg2576 mice subjected to CUMS, binding assay with [125I]-labeled anti-NeuN antibody; assay type: in vivo; conditions: 15 months-old Tg2576 mice, 3 months of CUMS, treated during CUMS; compounds 10 mg/kg/d
Tomm6 = molecular target: T1, Tomm6 (Mus musculus, UniProt Q9CQN3); test: Immunoblot detection of hippocampal Tomm6 protein in treated Tg2576 mice; assay type: in vivo
T1 construct: hippocampi were isolated from 5-10 aged Tg2576 mice, pulverized under liquid nitrogen and solubilized; from tissue; host or cells: hippocampus of Tg2576 mice
T1 sequence (Q9CQN3 1-74): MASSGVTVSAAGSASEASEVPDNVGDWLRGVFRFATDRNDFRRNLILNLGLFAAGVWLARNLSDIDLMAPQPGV

[4] = test system: hyperphosphorylated PHF-Tau; test: Hippocampal hyperphosphorylated PHF-Tau in Tg2576 mice subjected to CUMS, binding assay with [125I]-labeled AT8 antibody; assay type: in vivo; conditions: 15 months-old Tg2576 mice, 3 months of CUMS, treated during CUMS; compounds 10 mg/kg/d
[5] = Measurement of serum level in dogs by HPLC; assay type: in vivo, German shepherd dogs
Method: (§1) Serum concentrations of alizarin were determined with serum isolated from the blood of male and female German shepherd dogs (age: 8-9 months) taken at different time points (0.5 h, 1 h, 2 h, 4 h, 6 h, 8 h, 24 h) after oral intake of the indicated doses for 4 weeks. In addition, serum concentrations of alizarin (Compound-1) were determined in male and female Sprague Dawley rats (body weight: 200-250 g) treated for 1 month and/or three months by oral gavage of alizarin at a once daily dose of 100 mg/kg, 50 mg/kg, 25 mg/kg and 12.5 mg/kg. Serum proteins were removed by acetonitrile precipitation, and alizarin was extracted by chloroform before separation on an HPLC-C18 column (Poroshell 120 EC-C18, 3.0×50 mm, Agilent) with an HPLC system (Agilent 1100 Series) and detection at OD245 nm. For quantitative determination of Compound-7 and Compound-10F in rat and dog serum, serum proteins were also removed by acetonitrile precipitation before HPLC analysis as detailed above and detection at OD254 nm.

[6] = Measurement of serum level in rats by HPLC; assay type: in vivo, Sprague Dawley rats
Method: as §1

[7] = Toxic adverse effects during 3 months of treatment of Tg2576 AD mice; assay type: in vivo; conditions: daily dose of 10 mg/kg
Agtr2 (AT2R) = test: Immunoblot detection of Agtr2 in PBMCs of aged rats subjected to CUMS; assay type: in vivo, rats (Sprague Dawley); conditions: 4 weeks of CUMS, treated during CUMS
[8] = test system: hyperphosphorylated PHF tau; test: Hippocampal hyperphosphorylated PHF tau in aged rats subjected to CUMS, immunoblot; assay type: in vivo, rats (Sprague Dawley); conditions: 4 weeks of CUMS, 10 mg/kg/d during CUMS
aggregated Agtr2 = test: ELISA of aggregated Agtr2 protein in PBMC of rats subjected to CUMS; assay type: in vivo, rats (Sprague Dawley); conditions: aged rats, 4 weeks of CUMS, treated during CUMS
Source text: More preferably, AGTR2 aggregation is detected with a sandwich ELISA. To this end the following steps can be performed: • (i) The first step of the sandwich ELISA is the immobilization of AGTR2-specific capture antibodies (any species, e.g. rabbit, rat, mouse, cameloid; serum, affinity-enriched; F(ab)2 fragments, nanobodies as generated in step (vi)) on an ELISA plate (Nunc Maxisorb), 0.1-10 microg/well, preferably 1-5 microg, more preferably, 1-2 microg in 100 microL of a suitable buffer (e.g. 0.1 M sodium acetate, 0.1 M NaCl, pH 5.5; or 15.9 mM Na2CO3, 35 mM NaHCO3, pH 9.6) by overnight incubation at 4° C. […] After the incubation time, unbound antibody is removed by washing steps (without Tween 20). • (v) Bound antibody is detected by a substrate reaction, which includes the addition of 50-400 microL, preferably 100-200 microL of substrate buffer (18 microL of 30% H2O2 added to 10.5 ml ABTS solution (22 mg ABTS dissolved in 100 ml of 50 mM sodium citrate, pH 4.0-pH 4.5). Any other substrate (e.g. is also feasible. After an incubation time of 1 min-5 h at 4° C.-37° C., preferably 30 min-1 h, more preferably 30 min at 37° C., optical density is measured at 410 nm, e.g. on a plate reader (Versa Max, Molecular Devices). […]

| Compound | daily food intake / food consumption [1] | aggregation of the AT2 receptor [2] | hippocampal neuronal loss [3] | hippocampal protein content of Tomm6 (Tomm6; aged Tg2576 mice treated for 6 months) | hippocampal content of hyperphosphorylated PHF-Tau [4] | oral bioavailability / serum concentrations after oral intake [5] | oral bioavailability / serum concentrations after oral intake ([6]; rats) | oral doses required to achieve equivalent peak serum concentrations, higher in rats compared to dogs ([6]; rats vs dogs) | time of peak serum concentration ([6]; rats, repeated once daily oral intake of 20 mg/kg/d) [h] | toxic adverse effects [7] | PBMC content of monomeric Agtr2 (Agtr2 (AT2R)) | accumulation of aggregated Agtr2 in PBMCs (Agtr2 (AT2R)) | hippocampal Tomm6 protein content (Tomm6; Tg2576 AD mice subjected to the CUMS protocol, treated during CUMS (10 mg/kg/d)) | hippocampal accumulation of hyperphosphorylated PHF tau [8] | PBMC content of aggregated Agtr2 protein (ELISA) (aggregated Agtr2) |
| --- | --- | --- | --- | --- | --- | --- | --- | --- | --- | --- | --- | --- | --- | --- | --- |
| O=C(O)c1c(O)c(O)c2c(c1O)C(=O)c1ccccc1C2=O [Compound-2, purpurin-3-carboxylic acid] | did not significantly alter | inhibited the aggregation of the AT2 receptor | prevented the CUMS-induced hippocampal neuronal loss | substantially increased | inhibited hippocampal PHF-Tau hyperphosphorylation | – | – | – | – | – | – | – | – | – | – |
| Cc1nc(CO)cc(-c2ccc(F)cc2)c1C(N)=O [Compound-10F, 4-(4-fluorophenyl)-6-(hydroxymethyl)-2-methyl-pyridine-3-carboxamide] | – | – | retarded the CUMS-induced hippocampal neuronal loss | – | significantly inhibited the hippocampal accumulation of hyperphosphorylated PHF tau | had oral bioavailability | had oral bioavailability | approximately 10 fold | 1 | did not show any detectable toxic adverse effects | significantly higher compared to untreated controls | prevented the accumulation of aggregated Agtr2 | significantly higher | prevented the hippocampal accumulation of hyperphosphorylated PHF tau | significantly retarded the CUMS-induced accumulation of Agtr2 aggregates |
